{"source": "paper PMC11174122", "about": "(Molecules, 2024)", "key": {"MCF-7": {"tested_on": "MCF-7", "assay": "MTT cytotoxic activity assay, MCF-7", "assay_type": "cell-based", "conditions": "Homo sapiens, MCF7, 48 h", "experimental": "(§1) MCF-7, Hela, and HUCEC were cultured in DMEM (Beijing Solarbio) containing 10% FBS, 100 U/mL penicillin, and […] at 37 °C and 5% CO2. Bel-7402, A549, PC-3M were cultured in RPMI-1640 (Beijing Solarbio) media supplemented with 10% FBS (Wuhan Punuosai Life Science and Technology Co., Ltd., Wuhan, China), 100 U/mL penicillin, and […] at 37 °C and 5% CO2. MTT (Beijing Solarbio) was prepared with PBS at a concentration of 5 mg/mL. All tested drugs were prepared in a solution with a concentration of 20 mM, with dimethyl sulfoxide as the solvent.\n(§2) The cells were inoculated into 96-well plates at a density of 5 × 10^3 cells/well. When the cell fusion reached 70–80%, the drug was treated for 48 h. Subsequently, 20 μL MTT was added to each well and incubated at 37 °C with 5% CO2 for 4 h. After that, the medium was discarded and 150 μL DMSO was added to each well. The absorbance was measured at 490 nm with an enzymoleter."}, "Hela": {"tested_on": "Hela", "assay": "MTT cytotoxic activity assay, Hela", "assay_type": "cell-based, human", "conditions": "Homo sapiens, HeLa; MTT, 48 h", "experimental": "as §1, §2"}, "A549": {"tested_on": "A549", "assay": "MTT cytotoxic activity assay, A549", "assay_type": "cell-based", "conditions": "Homo sapiens, 48 h", "experimental": "as §1, §2"}, "PC-3M": {"tested_on": "PC-3M", "assay": "MTT cytotoxic activity assay, PC-3M", "assay_type": "cell-based", "conditions": "Homo sapiens", "experimental": "as §1, §2"}, "Bel-7402": {"tested_on": "Bel-7402", "assay": "MTT cytotoxic activity assay, Bel-7402", "assay_type": "cell-based", "conditions": "Homo sapiens, 48 h", "experimental": "as §1, §2"}}, "note": "Read-outs that look alike come from different tables or passages of the source.", "data": [{"compound": "CC(C)(C)OC(=O)NC(Cc1ccccc1)C(=O)Oc1ccc(/C=C/C(=O)c2ccc(O)cc2O)cc1", "note": "[Compound 21, (E)-4-(3-(2,4-dihydroxyphenyl)-3-oxoprop-1-en-1-yl)phenyl(tert-butoxycarbonyl)-D-phenylalaninate]", "values": [{"measurement": "IC50", "setting": "MCF-7", "result": 75.7, "unit": "µM"}, {"measurement": "IC50", "setting": "Hela", "result": 66.5, "unit": "µM"}, {"measurement": "IC50", "setting": "A549", "result": 60.2, "unit": "µM"}, {"measurement": "IC50", "setting": "PC-3M; read-out: IC50 PC-3M, 48 h", "result": 87.5, "unit": "µM"}, {"measurement": "IC50", "setting": "Bel-7402", "result": 45.3, "unit": "µM"}]}, {"compound": "CC(C)(C)OC(=O)NC(CCc1ccccc1)C(=O)Oc1ccc(C(=O)/C=C/c2ccc(OC(=O)[C@H](CCc3ccccc3)NC(=O)OC(C)(C)C)cc2)c(O)c1", "note": "(stereo partly drawn) [Compound 12, 4-((E)-3-(4-((2-((tert-butoxycarbonyl)amino)-4-phenylbutanoyl)oxy)-2-hydroxyphenyl)-3-oxoprop-1-en-1-yl)phenyl(2S)-2-((tert-butoxycarbonyl)amino)-4-phenylbutanoate]", "values": [{"measurement": "IC50", "setting": "MCF-7", "result": "> 200", "unit": "µM"}, {"measurement": "IC50", "setting": "Hela", "result": "> 200", "unit": "µM"}, {"measurement": "IC50", "setting": "A549", "result": "> 200", "unit": "µM"}, {"measurement": "IC50", "setting": "PC-3M; read-out: IC50 PC-3M, 48 h", "result": "> 200", "unit": "µM"}, {"measurement": "IC50", "setting": "Bel-7402", "result": "> 200", "unit": "µM"}]}, {"compound": "C[C@H](NC(=O)OC(C)(C)C)C(=O)Oc1ccc(C(=O)/C=C/c2ccc(OC(=O)[C@@H](C)NC(=O)OC(C)(C)C)cc2)c(O)c1", "note": "[Compound 10, 4-((E)-3-(4-(((tert-butoxycarbonyl)-D-alanyl)oxy)phenyl)acryloyl)-3-hydroxyphenyl (tert-butoxycarbonyl)-L-alaninate]", "values": [{"measurement": "IC50", "setting": "MCF-7", "result": "> 200", "unit": "µM"}, {"measurement": "IC50", "setting": "Hela", "result": "> 200", "unit": "µM"}, {"measurement": "IC50", "setting": "A549", "result": "> 200", "unit": "µM"}, {"measurement": "IC50", "setting": "PC-3M; read-out: IC50 PC-3M, 48 h", "result": "> 200", "unit": "µM"}, {"measurement": "IC50", "setting": "Bel-7402", "result": "> 200", "unit": "µM"}]}, {"compound": "Cc1ccc(C[C@H](NC(=O)OC(C)(C)C)C(=O)Oc2ccc(C(=O)/C=C/c3ccc(OC(=O)[C@@H](Cc4ccc(C)cc4)NC(=O)OC(C)(C)C)cc3)c(O)c2)cc1", "note": "[Compound 22, 4-((E)-3-(4-(((S)-2-((tert-butoxycarbonyl)amino)-3-(p-tolyl)propanoyl)oxy)-2-hydroxyphenyl)-3-oxoprop-1-en-1-yl)phenyl(R)-2-((tert-butoxycarbonyl)amino)-3-(p-tolyl)propanoate]", "values": [{"measurement": "IC50", "setting": "MCF-7", "result": "> 200", "unit": "µM"}, {"measurement": "IC50", "setting": "Hela", "result": "> 200", "unit": "µM"}, {"measurement": "IC50", "setting": "A549", "result": "> 200", "unit": "µM"}, {"measurement": "IC50", "setting": "PC-3M; read-out: IC50 PC-3M, 48 h", "result": "> 200", "unit": "µM"}, {"measurement": "IC50", "setting": "Bel-7402", "result": "> 200", "unit": "µM"}]}, {"compound": "CC(C)(C)OC(=O)NC(C(=O)Oc1ccc(/C=C/C(=O)c2ccc(O)cc2O)cc1)C1CCCC1", "note": "[Compound 7, (E)-4-(3-(2,4-dihydroxyphenyl)-3-oxoprop-1-en-1-yl)phenyl(R)-2-((tert-butoxycarbonyl)amino)-2-cyclopentylacetate]", "values": [{"measurement": "IC50", "setting": "MCF-7", "result": 29.8, "unit": "µM"}, {"measurement": "IC50", "setting": "Hela", "result": 28.7, "unit": "µM"}, {"measurement": "IC50", "setting": "A549", "result": 27.4, "unit": "µM"}, {"measurement": "IC50", "setting": "PC-3M; read-out: IC50 PC-3M, 48 h", "result": 33.2, "unit": "µM"}, {"measurement": "IC50", "setting": "Bel-7402", "result": 27.9, "unit": "µM"}]}, {"compound": "CC(C)(C)OC(=O)N[C@@H](Cc1ccccc1Cl)C(=O)Oc1ccc(C(=O)/C=C/c2ccc(OC(=O)[C@@H](Cc3ccccc3Cl)NC(=O)OC(C)(C)C)cc2)c(O)c1", "note": "[Compound 16, 4-((E)-3-(4-(((S)-2-((tert-butoxycarbonyl)amino)-3-(2-chlorophenyl)propanoyl)oxy)-2-hydroxyphenyl)-3-oxoprop-1-en-1-yl)phenyl(R)-2-((tert-butoxycarbonyl)amino)-3-(2-chlorophenyl)propanoate]", "values": [{"measurement": "IC50", "setting": "MCF-7", "result": "> 200", "unit": "µM"}, {"measurement": "IC50", "setting": "Hela", "result": "> 200", "unit": "µM"}, {"measurement": "IC50", "setting": "A549", "result": "> 200", "unit": "µM"}, {"measurement": "IC50", "setting": "PC-3M; read-out: IC50 PC-3M, 48 h", "result": "> 200", "unit": "µM"}, {"measurement": "IC50", "setting": "Bel-7402", "result": "> 200", "unit": "µM"}]}, {"compound": "CC(C)(C)OC(=O)N[C@@H](Cc1ccccc1Br)C(=O)Oc1ccc(C(=O)/C=C/c2ccc(OC(=O)[C@@H](Cc3ccccc3Br)NC(=O)OC(C)(C)C)cc2)c(O)c1", "note": "[Compound 14, 4-((E)-3-(4-(((S)-3-(2-bromophenyl)-2-((tert-butoxycarbonyl)amino)propanoyl)oxy)-2-hydroxyphenyl)-3-oxoprop-1-en-1-yl)phenyl(R)-3-(2-bromophenyl)-2-((tert-butoxycarbonyl)amino)propanoate]", "values": [{"measurement": "IC50", "setting": "MCF-7", "result": "> 200", "unit": "µM"}, {"measurement": "IC50", "setting": "Hela", "result": "> 200", "unit": "µM"}, {"measurement": "IC50", "setting": "A549", "result": "> 200", "unit": "µM"}, {"measurement": "IC50", "setting": "PC-3M; read-out: IC50 PC-3M, 48 h", "result": "> 200", "unit": "µM"}, {"measurement": "IC50", "setting": "Bel-7402", "result": "> 200", "unit": "µM"}]}, {"compound": "CC(C)(C)OC(=O)N[C@H](Cc1ccccc1Cl)C(=O)Oc1ccc(/C=C/C(=O)c2ccc(O)cc2O)cc1", "note": "[Compound 17, (E)-4-(3-(2,4-dihydroxyphenyl)-3-oxoprop-1-en-1-yl)phenyl(R)-2-((tert-butoxycarbonyl)amino)-3-(2-chlorophenyl)propanoate]", "values": [{"measurement": "IC50", "setting": "MCF-7", "result": 60.2, "unit": "µM"}, {"measurement": "IC50", "setting": "Hela", "result": 30.4, "unit": "µM"}, {"measurement": "IC50", "setting": "A549", "result": 40.7, "unit": "µM"}, {"measurement": "IC50", "setting": "PC-3M; read-out: IC50 PC-3M (text), 48 h", "result": 37.4, "unit": "µM"}, {"measurement": "IC50", "setting": "PC-3M; read-out: IC50 PC-3M, 48 h", "result": 38.1, "unit": "µM"}, {"measurement": "IC50", "setting": "Bel-7402", "result": 33.2, "unit": "µM"}]}]}
